Assay results from US9708334B2, “Substituted 2,4,5,6-tetrahydropyrrolo[3,4-c]pyrazole and 4,5,6,7-tetrahydro-2H-pyrazolo[4,3-c]pyridine compounds as GlyT1 inhibitors” (DART NEUROSCIENCE (CAYMAN) LTD., priority 2014, dated 2017).

These molecules were tested against T1, GlyT1 (Homo sapiens, UniProt P48067) (assay: Glycine Transporter 1 (GlyT1) uptake assay, scintillation proximity assay of [14C]-glycine uptake). Conditions: SPA, four parameter logistic fit, read-out: GlyT1 (pIC50) (converted).
T1 construct: expressed in transfected cells
T1 sequence (P48067 1-706): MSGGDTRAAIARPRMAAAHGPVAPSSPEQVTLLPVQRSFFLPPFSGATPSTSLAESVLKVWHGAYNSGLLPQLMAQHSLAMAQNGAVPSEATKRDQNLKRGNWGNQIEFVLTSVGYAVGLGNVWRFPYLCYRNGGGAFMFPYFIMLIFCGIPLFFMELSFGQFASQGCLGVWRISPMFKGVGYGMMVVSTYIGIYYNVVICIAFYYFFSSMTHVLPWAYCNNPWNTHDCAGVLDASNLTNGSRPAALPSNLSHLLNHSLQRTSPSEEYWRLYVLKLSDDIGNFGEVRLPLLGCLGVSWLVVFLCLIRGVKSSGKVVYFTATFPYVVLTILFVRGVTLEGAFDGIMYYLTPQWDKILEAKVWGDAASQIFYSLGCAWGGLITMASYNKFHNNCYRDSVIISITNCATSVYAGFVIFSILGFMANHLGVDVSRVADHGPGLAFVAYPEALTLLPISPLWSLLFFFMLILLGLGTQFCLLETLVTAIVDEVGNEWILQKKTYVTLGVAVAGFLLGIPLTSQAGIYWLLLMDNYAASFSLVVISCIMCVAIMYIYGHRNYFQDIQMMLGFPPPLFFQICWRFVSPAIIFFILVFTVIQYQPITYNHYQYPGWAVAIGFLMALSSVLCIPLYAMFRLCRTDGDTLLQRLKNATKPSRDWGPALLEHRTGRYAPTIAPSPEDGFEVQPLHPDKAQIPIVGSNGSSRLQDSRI
Format: cell-based
Method: Glycine Transporter 1 (GlyT1) Uptake Assay
Plates were then read on a MicroBeta plate counter (Perkin Elmer). Dose-response data for tested compounds were analyzed and curves were fit using a four parameter logistic fit to determine IC50 values. […]

SMILES	IC50 [µM]
COc1c(C#N)ccc(OCC(F)(F)F)c1C(=O)N1Cc2cn(-c3ncccc3F)nc2C1 [Example 312, 3-[2-(3-Fluoropyridin-2-yl)-2H 4H 5H 6H-pyrrolo[3,4-c]pyrazole-5-carbonyl]-2-methoxy-4-(2 2 2-trifluoroethoxy)benzonitrile]	< 0.1
CS(=O)(=O)c1ccc(N2CCC(F)(F)CC2)c(C(=O)N2Cc3cn(-c4cccc(C(F)(F)F)c4)nc3C2)c1 [Example 55, 4 4-Difluoro-1-(4-methanesulfonyl-2-{2-[3-(trifluoromethyl)phenyl]-2H 4H 5H 6H-pyrrolo[3,4-e]pyrazole-5-carbonyl}phenyl)piperidine]	< 0.1
CC(C)(C)COc1ccc(S(C)(=O)=O)cc1C(=O)N1Cc2cn(-c3cccc(C(F)(F)F)c3)nc2C1 [Example 50, 5-[2-(2 2-Dimethylpropoxy)-5-methanesulfonylbenzoyl]-2-[3-(trifluoromethyl)phenyl]-2H 4H 5H 6H-pyrrolo[3,4-c]pyrazole]	< 0.1
Cc1cccc(-n2cc3c(n2)CN(C(=O)c2cc(S(C)(=O)=O)ccc2OCC(F)(F)F)C3)c1 [Example 105, 5-[5-Methanesulfonyl-2-(2 2 2-trifluoroethoxy)benzoyl]-2-(3-methylphenyl)-2H 4H 5H 6H-pyrrolo[3,4-c]pyrazole]	< 0.1
Cc1cccc(-c2ccc(C#N)cc2C(=O)N2Cc3cn(-c4ccnc(C)c4)nc3C2)c1 [Example 564, 4-(3-Methylphenyl)-3-[2-(2-methylpyridin-4-yl)-2H 4H 5H 6H-pyrrolo[3,4-c]pyrazole-5-carbonyl]benzonitrile]	1 to 10
Cc1cc(-n2cc3c(n2)CN(C(=O)c2cc(C#N)ccc2OCC2CC2)C3)ccn1 [Example 540, 4-(Cyclopropylmethoxy)-3-[2-(2-methylpyridin-4-yl)-2H 4H 5H 6H-pyrrolo[3,4-c]pyrazole-5-carbonyl]benzonitrile]	< 0.1
CCCC(C)Oc1ccc(C#N)c(OC)c1C(=O)N1Cc2cn(-c3ccc(F)cc3)nc2C1 (stereo not shown) [Example 521, 3-[2-(4-Fluorophenyl)-2H 4H 5H 6H-pyrrolo[3,4-c]pyrazole-5-carbonyl]-2-methoxy-4-(pentan-2-yloxy)benzonitrile]	0.1 to 1
CCS(=O)(=O)c1ccc(OC(C)C)c(C(=O)N2Cc3cn(-c4ccc(F)c(C(F)F)c4)nc3C2)c1 [Example 82, 2-[3-(Difluoromethyl)-4-fluorophenyl]-5-[5-(ethanesulfonyl)-2-(propan-2-yloxy)benzoyl]-2H 4H 5H 6H-pyrrolo[3,4-c]pyrazole]	< 0.1
C[C@H](Oc1ccc(C#N)cc1C(=O)N1Cc2cnn(Cc3ccccc3)c2C1)C(F)(F)F [Example 383]	1 to 10
CS(=O)(=O)c1ccc(OCC2CC2)c(C(=O)N2Cc3cn(-c4ccccc4)nc3C2)c1 [Example 118, 5-[2-(Cyclopropylmethoxy)-5-methanesulfonylbenzoyl]-2-phenyl-2H 4H 5H 6H-pyrrolo[3,4-c]pyrazole]	0.1 to 1
N#Cc1ccc(C2CCCC2)c(C(=O)N2CCc3nn(-c4ccccc4)cc3C2)c1F [Example 175, 4-Cyclopentyl-2-fluoro-3-{2-phenyl-2H 4H 5H 6H 7H-pyrazolo[4,3-c]pyridine-5-carbonyl}benzonitrile]	0.1 to 1
CC(C)Oc1ccc(C#N)cc1C(=O)N1Cc2cn(-c3ccc(F)cn3)nc2C1 [Example 335, 3-[2-(5-Fluoropyridin-2-yl)-2H 4H 5H 6H-pyrrolo[3,4-c]pyrazole-5-carbonyl]-4-(propan-2-yloxy)benzonitrile]	0.1 to 1
Cc1cccnc1-n1cc2c(n1)CN(C(=O)c1c(O[C@H](C)C(F)(F)F)ccc(C#N)c1Cl)C2 [Example 31, 2-Chloro-3-[2-(3-methylpyridin-2-yl)-2H 4H 5H 6H-pyrrolo[3,4-c]pyrazole-5-carbonyl]-4-{[(2R)-1 1 1-trifluoropropan-2-yl]oxy}benzonitrile]	0.1 to 1
COc1c(C#N)ccc(OC(C)C(F)(F)F)c1C(=O)N1CCc2nn(-c3ccc(F)cc3)c(C(F)(F)F)c2C1 (stereo not shown) [Example 576, 3-[2-(4-Fluorophenyl)-3-(trifluoromethyl)-2H 4H 5H 6H 7H-pyrazolo[4,3-c]pyridine-5-carbonyl]-2-methoxy-4-[(1 1 1-trifluoropropan-2-yl)oxy]benzonitrile]	< 0.1
CC(C)Oc1ccc(S(=O)(=O)C(C)C)cc1C(=O)N1Cc2cn(-c3cccc(C(F)(F)F)c3F)nc2C1 [Example 93, 2-[2-Fluoro-3-(trifluoromethyl)phenyl]-5-[2-(propan-2-yloxy)-5-(propane-2-sulfonyl)benzoyl]-2H 4H 5H 6H-pyrrolo[3,4-c]pyrazole]	1 to 10
C[C@H](Oc1ccc(C#N)cc1C(=O)N1Cc2cn(-c3ccnnc3)nc2C1)C(F)(F)F [Example 423, 3-[2-(Pyridazin-4-yl)-2H 4H 5H 6H-pyrrolo[3,4-c]pyrazole-5-carbonyl]-4-{[(2S)-1 1 1-trifluoropropan-2-yl]oxy}benzonitrile]	< 0.1
CCc1cc(-n2cc3c(n2)CN(C(=O)c2cc(C#N)ccc2OCC(F)F)C3)ccn1 [Example 545, 4-(2 2-Difluoroethoxy)-3-[2-(2-ethylpyridin-4-yl)-2H 4H 5H 6H-pyrrolo[3,4-c]pyrazole-5-carbonyl]benzonitrile]	0.1 to 1
COc1c(C#N)ccc(C2(F)CCCC2)c1C(=O)N1CCc2nn(-c3ccccc3)cc2C1 [Example 490, 4-(1-Fluorocyclopentyl)-2-methoxy-3-{2-phenyl-2H 4H 5H 6H 7H-pyrazolo[4,3-c]pyridine-5-carbonyl}benzonitrile]	< 0.1
CC(Oc1ccc(C#N)c(Cl)c1C(=O)N1CCc2c(cnn2-c2ccc(F)cc2)C1)C(F)(F)F (stereo not shown) [Example 501, 2-Chloro-3-[1-(4-fluorophenyl)-1H 4H 5H 6H 7H-pyrazolo[4,3-c]pyridine-5-carbonyl]-4-[(1 1 1-trifluoropropan-2-yl)oxy]benzonitrile]	0.1 to 1
COc1c(C#N)ccc(OCC2CC2)c1C(=O)N1Cc2cn(-c3cncc(F)c3)nc2C1 [Example 319, 4-(Cyclopropylmethoxy)-3-[2-(5-fluoropyridin-3-yl)-2H 4H 5H 6H-pyrrolo[3,4-c]pyrazole-5-carbonyl]-2-methoxybenzonitrile]	< 0.1
Cc1cccc(-n2cc3c(n2)CN(C(=O)c2cc(S(C)(=O)=O)ccc2O[C@@H](C)C(F)(F)F)C3)n1 [Example 360, 2-[5-(5-Methanesulfonyl-2-{[(2S)-1 1 1-trifluoropropan-2-yl]oxy}benzoyl)-2H 4H 5H 6H-pyrrolo[3,4-c]pyrazol-2-yl]-6-methylpyridine]	< 0.1
C[C@@H](Oc1ccc(C#N)c(Cl)c1C(=O)N1Cc2cn(-c3cncc(F)c3)nc2C1)C(F)(F)F [Example 30, 2-Chloro-3-[2-(5-fluoropyridin-3-yl)-2H 4H 5H 6H-pyrrolo[3,4-c]pyrazole-5-carbonyl]-4-{[(2R)-1 1 1-trifluoropropan-2-yl]oxy}benzonitrile]	< 0.1
Cc1nc(-n2cc3c(n2)CN(C(=O)c2c(O[C@@H](C)C(F)(F)F)ccc(C#N)c2Cl)C3)cn1C [Example 282, 2-Chloro-3-[2-(1 2-dimethyl-1H-imidazol-4-yl)-2H 4H 5H 6H-pyrrolo[3,4-c]pyrazole-5-carbonyl]-4-{[(2S)-1 1 1-trifluoropropan-2-yl]oxy}benzonitrile]	0.1 to 1
CC(C)COc1ccc(S(C)(=O)=O)cc1C(=O)N1Cc2cn(-c3ccccc3F)nc2C1 [Example 66, 2-(2-Fluorophenyl)-5-[5-methanesulfonyl-2-(2-methylpropoxy)benzoyl]-2H 4H 5H 6H-pyrrolo[3,4-c]pyrazole]	< 0.1
CC(C)Oc1ccc(C#N)cc1C(=O)N1Cc2cn(-c3ccc(F)cc3)nc2C1 [Example 529, 3-[2-(4-Fluorophenyl)-2H 4H 5H 6H-pyrrolo[3,4-c]pyrazole-5-carbonyl]-4-(propan-2-yloxy)benzonitrile]	0.1 to 1
COc1c(C#N)ccc(O[C@@H](C)C(F)(F)F)c1C(=O)N1Cc2cnn(-c3cn(C)c(C)n3)c2C1 [Example 281, 3-[1-(1 2-Dimethyl-1H-imidazol-4-yl)-1H 4H 5H 6H-pyrrolo[3,4-c]pyrazole-5-carbonyl]-2-methoxy-4-{[(2S)-1 1 1-trifluoropropan-2-yl]oxy}benzonitrile]	0.1 to 1
CC(C)(C)COc1ccc(S(C)(=O)=O)cc1C(=O)N1CCc2nn(-c3ccccc3)cc2C1 [Example 497, 5-[2-(2 2-Dimethylpropoxy)-5-methanesulfonylbenzoyl]-2-phenyl-2H 4H 5H 6H 7H-pyrazolo[4,3-c]pyridine]	0.1 to 1
CCS(=O)(=O)c1ccc(O[C@@H](C)C(F)(F)F)c(C(=O)N2Cc3cn(-c4cccc(C)c4F)nc3C2)c1 [Example 78, 5-[5-(Ethanesulfonyl)-2-{[(2S)-1 1 1-trifluoropropan-2-yl]oxy}benzoyl]-2-(2-fluoro-3-methylphenyl)-2H 4H 5H 6H-pyrrolo[3,4-c]pyrazole]	< 0.1
